Measurements reported in US20220096512A1, “WATER-BASED ANTIFUNGAL COMPOSITIONS” (Sigma-Aldrich Co. LLC, priority 2019, published 2022).
In brackets after ≈: the same amount, converted by molar mass.

Assays:
Aspergillus niger = test: Diffusion disc MIC testing against Aspergillus niger; assay type: cell-based; settings: diffusion paper disc, 10 μL applied, incubated overnight at 30° C., average of three experiments
Protocol: (§1) Minimum inhibitory concentration (MIC) testing was determined for the inventive nystatin formulation described herein, along with comparative antifungal agents.
(§2) Nystatin (Solid) and amphotericin were dissolved in DMF in 1 mg/mL. Econazole nitrate was dissolved in PBS to achieve 1 mg/mL. Nystatin formulation diluted with PBS to achieve the same potency as Nystatin (Solid).
(§3) Antibiotic medium 19 was sterilized in autoclave, after sterilization when the temperature lowered to 45° C. and 1 mL from spore suspension was added. 8 mL from this mixture dispensed to each petri dish.
(§4) On each dish 6 sterile diffusion paper disc were placed, 10 μL from each antibiotic were applied in 10, 15, 20, 25, 30, 35 μg/mL concentrations. Where MIC concentrations were below 10, lower concentrations were used: 2, 5, 7.5 μg/mL
(§5) The petri dishes were incubated overnight at 30° C. The MIC were determined as the lower concentration that inhibition could be visualized.

Candida albicans = test: Diffusion disc MIC testing against Candida albicans; assay type: cell-based; settings: diffusion paper disc, 10 μL applied, incubated overnight at 30° C., average of three experiments
Protocol: as §1, §2, §3, §4, §5

| Molecule | MIC (Aspergillus niger; Aspergillus niger, read-out: Inhibition of Aspergillus niger (MIC, lower concentration at which inhibition could be visualized)) [mg/L] | Inhibition of Aspergillus niger (MIC, lower concentration at which inhibition could be visualized) (Aspergillus niger) | Inhibition of Candida albicans (MIC, lower concentration at which inhibition could be visualized) (Candida albicans) | Inhibition of Aspergillus niger (MIC, lower concentration at which inhibition could be visualized) (Aspergillus niger; listed as Nystatin methyl ester) |
| --- | --- | --- | --- | --- |
| C[C@@H]1[C@H](O)[C@@H](C)/C=C/C=C/C=C/C=C/C=C/C=C/C=C/[C@H](O[C@@H]2O[C@H](C)[C@@H](O)[C@H](N)[C@@H]2O)C[C@@H]2O[C@](O)(C[C@@H](O)C[C@@H](O)[C@H](O)CC[C@@H](O)C[C@@H](O)CC(=O)O[C@H]1C)C[C@H](O)[C@H]2C(=O)O [Amphotericin, Amphotericin B] | 31.5 (≈ 34.1 µM) |  |  |  |
| Clc1ccc(COC(Cn2ccnc2)c2ccc(Cl)cc2Cl)cc1 (stereo not shown) [Econazole, Econazole nitrate] |  | No inhibition | No inhibition |  |
| C[C@@H]1[C@H](O)[C@@H](C)/C=C/C=C/CC/C=C/C=C/C=C/C=C/C(O[C@H]2O[C@H](C)[C@@H](O)[C@H](N)[C@@H]2O)CC2O[C@](O)(CC(O)C(O)CCC(O)CC(O)CC(O)CC(=O)O[C@H]1C)CC(O)C2C(=O)O (stereo partly shown) [Nystatin] |  | 22.5 mg/L | 14 mg/L |  |
| Nystatin Methyl ester |  | No inhibition | 30 mg/L | no observed inhibition |
| Polymixin B |  | No inhibition | No inhibition |  |
